In US20240082334A1, “STABILIZED STEVIOL GLYCOSIDE COMPOSITIONS AND USES THEREOF” (CARGILL, INCORPORATED, priority 2017, published 2024):

Assay: Reb M solubility in D2O observed in NMR sample preparation
Format: physicochemical
Details: when SCs are not present, compared with SCs present; room temperature
Experimental: A total of four samples were prepared for this study, and they are listed below. Each sample was dissolved fully in water, with or without heat as noted below, flash frozen at −80° C., and then placed on a lyophilizer until dry. The dry powders were subsequently dissolved in D2O at room temperature and analyzed by ^1H NMR and ^13C NMR.

C=C1C[C@@]23CC[C@H]4[C@@](C)(CCC[C@@]4(C)C(=O)O[C@@H]4O[C@H](CO)[C@@H](O)[C@H](O[C@@H]5O[C@H](CO)[C@@H](O)[C@H](O)[C@H]5O)[C@H]4O[C@@H]4O[C@H](CO)[C@@H](O)[C@H](O)[C@H]4O)[C@@H]2CC[C@]1(O[C@@H]1O[C@H](CO)[C@@H](O)[C@H](O[C@@H]2O[C@H](CO)[C@@H](O)[C@H](O)[C@H]2O)[C@H]1O[C@@H]1O[C@H](CO)[C@@H](O)[C@H](O)[C@H]1O)C3 [Reb M, Rebaudioside M]
solubility in D2O: much lower
